Measurements taken from patent US9217016B2, “Hyaluronic acid-binding synthetic peptidoglycans, preparation, and methods of use” (SYMIC IP, LLC, priority 2011, dated 2015).
One block for each substance: values may come before it. Ends that are not written are not given here.

Key:
[1] = system: Matrix metalloprotease-I (MMP-I); test: Collagen protection: degradation of collagen type I in ECM replicates by MMP-I (hydroxyproline assay); assay type: biochemical; conditions: CI + HA + treatment, 50 hr at 37° C.
Method: ECM-based constructs containing collagen alone, collagen+HA+CS, or collagen+HA+10.5GAH−CS were created in 8-well chambered slides as described previously. The final sample volume was 200 μL consisting of 0.8 mg of collagen type I. Matrix metalloprotease-I (MMP-I, R&D Systems, Minneapolis, Minn.) at a concentration of 0.133 mg/mL, was activated following the protocol detailed in the manufacturer's instructions. Briefly, MMP-1, already dissolved in manufacturer's buffer (50 mM Tris, 10 mM CaCl2, 150 mM NaCl, 0.05% Brij-35, pH 7.5), was combined with an equal volume of 25 mM APMA (Sigma) in DMSO at 37° C. for 2 hrs to activate the enzyme. Upon activation, the MMP-1 solution was diluted two fold in water and was added to the sample as a 100 μL supernatant. […] Following hydrolysis, the amount of hydroxyproline (hyp) was analyzed according to the protocol developed by Reddy, et al. (Clin Biochem, 1996, 29: 225-9). […] After the development of the chlorophore, the samples were read on a spectrophotometer at a wavelength of 550 nm. Absorbance readings were compared to those obtained from known concentrations of collagen to determine the amount of collagen remaining in each sample.
Each replicate sample was constructed with 0.8 mg of CI, and after degradation, the remaining CI amount was determined by the protocol developed by Reddy et al. and converting that to CI amount by a set of CI standards. […]

[2] = system: Hyaluronidase (Type II from Sheep Testes); test: Protection of hyaluronic acid from hyaluronidase degradation (dynamic viscosity); assay type: biochemical; conditions: 0.5 wt % HA, 75:1 treatment to HA molar ratio
Method: Dynamic viscosity values of HA solutions were determined using the AR-G2. High molecular weight HA solutions have a large viscosity due to the extensive chain entanglement caused by the long chain length. Hyaluronidase (Type II from Sheep Testes, Sigma) cleaves the HA chain, creating shorter chains with less entanglement. The shorter HA chains will have a measurably lower viscosity. HA solutions were incubated with 100 units/mL hyaluronidase. Dynamic viscosities were determined using a time sweep with constant angular frequency and oscillatory stress initially and at 2 and 4-hour timepoints. Samples (at 0.5 wt % HA) consisted of HA, HA+CS, and HA+10.5GAH−CS. The treatment values were added at a 75:1 treatment to HA molar ratio. The percent degradation was calculated for each measurement by dividing the initial viscosity from the difference of the measured viscosity minus the initial viscosity.
Viscosities of each treatment without hyaluronidase (TES Buffer replaced the hyaluronidase volume) were initially measured and served as the baseline for the percent degradation calculations. The 0 hr timepoint involved the addition of the hyaluronidase, mixing of the solution, pipetting onto the rheometer, and the beginning equilibration operation of the machine. Therefore, the 0 hr timepoint occurred approximately two minutes after the addition of hyaluronidase. […]

[3] = Diffusion of peptidoglycans through cartilage matrix (avidin-biotin stain); conditions: aggrecan-depleted bovine cartilage explant, 10 μM diffused through articular surface for one hour
Method: Cartilage explants were obtained from the load bearing region of three month old bovine knee joints. Native aggrecan was removed from harvested cartilage explants leaving a matrix consisting primarily of type II collagen and residual GAG. This was achieved by treating explants with 0.5% (w/v) trypsin in HBSS for 3 hours at 37° C. (FIG. 13). After trypsin treatment explants were washed three times in HBSS and incubated with 20% FBS to inactivate residual trypsin activity. Peptidoglycan was dissolved in distilled water at 10 μM concentration and diffused through the articular surface of cartilage explants by placing 10 μL of the solution on the surface every ten minutes for one hour at room temperature (FIG. 14). Normal cartilage and aggrecan depleted cartilage were treated with 1×PBS as positive and negative controls respectively. After diffusion, explants were washed three times with 1×PBS and stored at −20° C. until further testing. Diffusion of peptidoglycan was confirmed by staining a midsagittal section of the tissue with streptavidin-horseradish peroxidase stain. The streptavidin stain binds to the biotin labeled molecule and is depicted as a brown color (FIGS. 15 and 16).

[4] = system: bovine chondrocytes in collagen scaffolds; test: In vitro inflammation model: collagen breakdown (Sircol assay); assay type: cell-based; conditions: cumulative over eight-day culture, with and without 20 ng/mL IL-1β, versus scaffolds with CS
Method: (§1) Collagen scaffolds seeded with chondrocytes were stimulated with IL-1β and assessed for degradation products.
(§2) Primary chondrocytes were harvested from three-month-old bovine knee joints obtained from an abattoir within 24 hours of slaughter (Dutch Valley Veal). Cartilage slices, 150-200 μm thick, were shaved from the lateral femoral condyle and washed three times in serum-free DMEM/F-12 medium (50 μg/mL ascorbic acid 2-phosphate, 100 μg/mL sodium pyruvate, 0.1% bovine serum albumin, 100 units/mL penicillin, 100 μg/mL streptomycin and 25 mM HEPES) prior to digestion with 3% fetal bovine serum (FBS) and 0.2% collagenase-P (Roche Pharmaceuticals) at 37° C. for six hours. Released chondrocytes were filtered through 70 μm cell strainer and centrifuged at 1000 rpm three times for five minutes each in medium listed above supplemented with 10% FBS. The cell pellet was resuspended in 10% FBS supplemented media and plated on 10 cm dishes at 10,000 cells/mL in a 37° C., 5% CO2 humidified incubator until confluent. […]
(§3) GAG degradation was monitored by measuring CS released in cell culture media using the dimethylmethylene blue (DMMB) dye assay and computed with a chondroitin-6-sulfate standard curve. Similarly, type I collagen degradation in cell culture media was monitored using the Sircol Collagen Assay using manufacturer specified protocols (Bio-Color). […]

[5] = system: Sprague-Dawley rat knee joints; test: Animal model of osteoarthritis (surgical induction), microCT; assay type: in vivo, Sprague-Dawley rats; conditions: six and eight weeks after OA induction surgery; 10 μl of a 1 μm mAGC weekly starting at week 4
Method: Sprague-Dawley rats (250-300 g) were used for surgery. The patellar tendon, the anterior and posterior cruciate ligaments and the medial, lateral collateral ligaments were transected. The medial and lateral meniscuses were totally menisectomized. The knee joint capsule was repaired with an absorbable suture and the skin was closed with a 4-0 monofilament nylon. Starting at week 4, 10 μl of a 1 μm mAGC was administered weekly.
The extent of inflammation was indicated by the MMP-13 probe (FIG. 18) in Sprague-Dawley rats treated with and without peptidoglycan at four, six and eight weeks post surgery (FIG. 19). […] Injured knees 6 weeks and 8 weeks following OA induction, (FIG. 21, Panels A and D, respectively), injured knees following peptidoglycan treatment (FIG. 21, Panels B and E, respectively), and Normal knee (FIG. 21, Panel C), are shown.

aggrecan = test: Real-time PCR, aggrecan expression; assay type: cell-based, bovine; conditions: chondrocytes in collagen scaffolds with versus without mAGC
Method: (§4) Following the cell culture study, constructs were stored in RNAlater solution (Ambion) at 4° C. for less than one week. Total mRNA was extracted using Nucleospin RNA II (Clontech) according to manufacturer's protocols. Extracted mRNA from all samples was quantified using Nanodrop 2000 spectrophotometer (Thermo Scientific) and reverse transcribed into cDNA using High Capacity cDNA Reverse Transcriptase Kit (Applied Biosystems). Real-time PCR was performed using Taqman Gene Expression Assays (Applied Biosystems) with the following primers: GAPDH (Bt03210913_gl), aggrecan (Bt03212186_ml) and collagen type II (Bt03251861_ml). 60 ng of cDNA template was prepared per 20 μL reaction for the two genes of interest and the endogenous gene. Real-time PCR analysis was carried out using a Taqman PCR Master Mix and 7500 Real-Time PCR System (Applied Biosystems). Data reported was normalized to GAPDH gene expression.

[6] = system: bovine chondrocytes in collagen scaffolds; test: In vitro inflammation model: CS release into media (DMMB assay); assay type: cell-based; conditions: cumulative over eight-day culture, with and without 20 ng/mL IL-1β, versus scaffolds with CS
Method: as §1, §2, §3

collagen type II = test: Real-time PCR, collagen type II expression; assay type: cell-based, bovine
Method: as §4

percent degradation of HA ([2]; 0 hr timepoint (about 2 min after hyaluronidase)): almost complete degradation | percent degradation of HA ([2]; 2 hr timepoint): above 90%
Substance: chondroitin sulfate [CS]
percent degradation of CI [1]: 74.7%

Substance: mAG(II)C: Collagen type II binding peptidoglycan with peptide WYRGRLGC (SEQ ID NO: 36) (also: attached to glycosaminoglycan backbone)
depth of penetration into tissue [3]: approximately 200 um

Substance: mAGC: HA binding peptidoglycan (aggrecan mimic): GAHWQFNALTVRGGGC (SEQ ID NO: 35) peptides attached to chondroitin sulfate; peptide number not stated (also: attached to chondroitin sulfate)
amount of collagen released into cell culture media [4]: significantly decreased | cartilage by MicroCT [5]: re-growth of new cartilage | aggrecan expression (normalized to GAPDH) (aggrecan): lower aggrecan expression | amount of CS released into cell culture media [6]: significantly decreased | level of collagen type II expression (normalized to GAPDH) (collagen type II; aligned collagen scaffolds): higher in scaffolds prepared with mAGC | level of collagen type II expression (normalized to GAPDH) (collagen type II; unaligned scaffolds): higher in scaffolds prepared without mAGC
